Data published in US20220389001A1, “ATF6 MODULATORS AND USES THEREOF” (Praxis Biotech LLC, priority 2019, published 2022).

Tests used:
ATF6 [1] = assay: ERSE ATF6-luciferase assay in presence of Tg-induced ER stress (U2-OS ATF6 TRE-luciferase reporter cells); format: cell-based, Human; details: Tg only = 100%; for ATF6 activity @ 1 μM [%] / activity at 1 µM: 1 μM test compound; for ATF6 activity @ 1 μM [%] / ATF6 activity @ 10 μM [%]: 8 hr; for ATF6 activity @ 10 μM [%] / activity at 10 µM: 10 μM test compound; for activity at 1 µM / activity at 10 µM: Homo sapiens, U2OS, 8 h
Procedure: (§1) To understand how exemplary compounds of the invention modulate the activity of ATF6 in absence or presence of endoplasmic reticulum (ER) stress, a Human bone osteosarcoma (U2-OS)-based TRE-luciferase reporter stable cell line was generated to determine the modulation of transcription of ATF6 target genes.
(§2) U2-OS cells were obtained from the American Type Culture Collection (ATCC HTB-96, ATCC Manassas, Va.) and were cultured with growing medium containing Dulbecco's Modified Eagle's Medium (DMEM) (Cat. No.: SH30023.02, HyClone) supplemented with fetal bovine serum (FBS) 10% (Cat. No.: 16000044, Gibco) and 1% penicillin-streptomycin antibiotic cocktail (Cat. No.: SV30010, Hyclone).
(§3) Cignal Lenti ATF6 luc reporter (Qiagen #CLS-6031L) was used to produce a stable cell line in U2-OS cells (U2-OS ATF6 TRE-luciferase reporter). The lenti ATF6 reporter is a preparation of replication incompetent, VSV-g pseudotyped lentivirus particles expressing the firefly luciferase gene under the control of a minimal (m)CMV promoter and tandem repeats of the ATF6 transcriptional response element (TRE). The number of response elements as well as the intervening sequence between response elements has been experimentally optimized to maximize the signal to noise ratio.
(§4) Exemplary compounds of the invention and reference compounds were prepared from powder as 10 mM stock solutions in dimethyl sulfoxide (DMSO; Cat. No. #D2650, Sigma Aldrich) and stored at −80° C. in presence of N2 neutral atmosphere.
(§5) For the primary screening, 40,000 U2-OS ATF6 TRE-luciferase reporter cells were plated in poly-D-lysine (Cat. No.: P2636, Sigma) pre-coated white 96-well plates (Thermo Scientific Nunc #136101) with 100 μL of growing medium. Cells were incubated in humidified chambers for 24 hr.
For testing exemplary compounds in presence of ER-stress, cells were pre-treated for 30 min with 50 μL growing medium containing either vehicle (DMSO), 1 or 10 μM test compound. After this pre-incubation, 50 μL of a solution containing 0.2 μM of the ER stress-inducer thapsigargin (Tg) was added to the appropriate wells. The Tg solution also contains vehicle or test compounds at 1 or 10 μM as indicated. The final concentration of DMSO in each well was kept at 0.3%. Plates were incubated for 8 hr in humidified chambers.
After the 8 hr incubation, plates were cooled down to room temperature for 10 min prior to the luciferase assays. Luciferase reactions were performed using Luciferase Assay System (Cat. No.: E4550, Promega). Briefly, each well was washed with 100 μl of PBS 1× and, then, 20 μl of lysis reagent was added into each well. Plates were shaken for 10 min and, then, 50 μl of Luciferase Assay Reagent was added to each well. Luminescence was determined by integration of 1 s with a gain of 110 in a Synergy 4 Microplate reader. All measurements were carried out in triplicate.
The average activity determined from the wells containing vehicle only (DMSO, 0% of ATF6 activity) was used as blank and subtracted from the rest of measurements. The average activity determined from the wells containing Tg only was used as 100% of ATF6 activity. The percentage of modulation of exemplary compounds was calculated by normalizing values to potential maximal activation with Tg.
ATF6 activities of exemplary compounds at 1 and 10 μM in presence Tg-induced ER stress tested in the U2-OS ATF6 TRE-luciferase reporter cells were determined and are shown in Table 2.

ATF6 [2] = assay: ERSE ATF6-luciferase assay in absence of ER stress (U2-OS ATF6 TRE-luciferase reporter cells); format: cell-based, Human; details: 8 hr, normalized to maximal activation with Tg; for ATF6 activity @ 1 μM- No Tg [%]: 1 μM test compound; for ATF6 activity @ 10 μM- No Tg [%]: 10 μM test compound
Procedure: as §1, §2, §3, §4, §5
For testing exemplary compounds in absence of ER-stress, cells were treated for 8 hr with 100 μL growing medium containing either vehicle (DMSO), 1 or 10 μM test compound or 0.1 μM Tg. The final concentration of DMSO in each well was kept at 0.3%. Plates were incubated in humidified chambers.
After 8 hr of incubation, plates were cooled down to room temperature for 10 min prior to luciferase assays. Luciferase reactions were performed as above. Luminescence was read by integration of 1 s with a gain of 110 in a Synergy 4 Microplate reader. All measurements were carried out in triplicate.
The average activity determined from the wells containing vehicle only (DMSO, 0% of ATF6 activity) was used as blank and subtracted from the rest of measurements. The percentage of modulation of exemplary compound was calculated by normalizing values to potential maximal activation with Tg.
ATF6 activities of exemplary compounds at 1 and 10 μM in absence of Tg-induced ER stress in the U2-OS ATF6 TRE-luciferase reporter cells were determined and are shown in Table 3.

SMILES	ATF6 activity @ 1 μM [%] (ATF6 [1])	ATF6 activity @ 10 μM [%] (ATF6 [1])	ATF6 activity @ 1 μM- No Tg [%] (ATF6 [2])	ATF6 activity @ 10 μM- No Tg [%] (ATF6 [2])	activity at 1 µM (ATF6 [1]) [%]	activity at 10 µM (ATF6 [1]) [%]
CC(c1c(F)cccc1Cl)n1cc(NC(=O)c2cc(-c3ccco3)on2)cn1 (single isomer, unassigned) [Compound 1-14, N-(1-(1-(2-chloro-6-fluorophenyl)ethyl)-1H-pyrazol-4-yl)-5-(furan-2-yl)isoxazole-3-carboxamide]	+++ (+++ refers to >150% at 1 or 10 μM test compound)	+++ (+++ refers to >150% at 1 or 10 μM test compound)	+ (+ refers to 0% < % activity < 25% at 1 or 10 μM test compound)	+ (+ refers to 0% < % activity < 25% at 1 or 10 μM test compound)	–	–
CC(c1c(F)cccc1Cl)n1cc(NC(=O)c2cc(-c3ccco3)on2)cn1 (single isomer, unassigned) [Compound 1-15, N-(1-(1-(2-chloro-6-fluorophenyl)ethyl)-1H-pyrazol-4-yl)-5-(furan-2-yl)isoxazole-3-carboxamide]	+ (+ refers to 100% < % activity < 125% at 1 or 10 μM)	+ (+ refers to 100% < % activity < 125% at 1 or 10 μM)	+ (+ refers to 0% < % activity < 25% at 1 or 10 μM test compound)	+ (+ refers to 0% < % activity < 25% at 1 or 10 μM test compound)	–	–
CC(c1ccc(F)cc1F)n1cc(NC(=O)c2cc(-c3ccco3)on2)cn1 (single isomer, unassigned) [Compound 1-16, N-(1-(1-(2,4-difluorophenyl)ethyl)-1H-pyrazol-4-yl)-5-(furan-2-yl)isoxazole-3-carboxamide]	–	++ (++ refers to 125% < % activity < 150% at 1 or 10 μM test compound)	+ (+ refers to 0% < % activity < 25% at 1 or 10 μM test compound)	+ (+ refers to 0% < % activity < 25% at 1 or 10 μM test compound)	100 to 125	–
CC(c1ccc(F)cc1F)n1cc(NC(=O)c2cc(-c3ccco3)on2)cn1 (single isomer, unassigned) [Compound 1-17, N-(1-(1-(2,4-difluorophenyl)ethyl)-1H-pyrazol-4-yl)-5-(furan-2-yl)isoxazole-3-carboxamide]	+ (+ refers to 100% < % activity < 125% at 1 or 10 μM)	+ (+ refers to 100% < % activity < 125% at 1 or 10 μM)	+ (+ refers to 0% < % activity < 25% at 1 or 10 μM test compound)	+ (+ refers to 0% < % activity < 25% at 1 or 10 μM test compound)	–	–
CC(c1ccc(C(F)(F)F)cc1C(F)(F)F)n1cc(NC(=O)c2cc(-c3cnccn3)no2)cn1 (single isomer, unassigned) [Compound 1-25, N-(1-(1-(2,4-bis(trifluoromethyl)phenyl)ethyl)-1H-pyrazol-4-yl)-3-(pyrazin-2-yl)isoxazole-5-carboxamide]	- (- refers to 75% < % activity < 100% at 1 or 10 μM)	- (- refers to 75% < % activity < 100% at 1 or 10 μM)	–	–	–	–
CC(c1ccc(C(F)(F)F)cc1C(F)(F)F)n1cc(NC(=O)c2cc(-c3cnccn3)no2)cn1 (single isomer, unassigned) [Compound 1-26, N-(1-(1-(2,4-bis(trifluoromethyl)phenyl)ethyl)-1H-pyrazol-4-yl)-3-(pyrazin-2-yl)isoxazole-5-carboxamide]	--- (--- refers to <50% at 1 or 10 μM test compound)	--- (--- refers to <50% at 1 or 10 μM test compound)	–	–	–	–
O=C(Nc1cnn(Cc2ccc(C(F)(F)F)cc2C(F)(F)F)c1)c1cc(-c2ccco2)on1 [Ceapin-A7, reference compound]	--- (--- refers to <50% at 1 or 10 μM test compound)	--- (--- refers to <50% at 1 or 10 μM test compound)	–	–	–	–
CC(c1c(Cl)cccc1Cl)n1cc(NC(=O)c2cc(-c3ccco3)on2)cn1 (centres unmarked) [Compound 1-1, N-(1-(1-(2,6-dichlorophenyl)ethyl)-1H-pyrazol-4-yl)-5-(furan-2-yl)isoxazole-3-carboxamide]	–	–	+ (+ refers to 0% < % activity < 25% at 1 or 10 μM test compound)	+ (+ refers to 0% < % activity < 25% at 1 or 10 μM test compound)	–	–
O=C(Nc1cnn(C2CCCc3ccccc32)c1)c1cc(-c2ccco2)on1 (centres unmarked) [Compound 1-3, 5-(furan-2-yl)-N-(1-(1,2,3,4-tetrahydronaphthalen-1-yl)-1H-pyrazol-4-yl)isoxazole-3-carboxamide]	–	–	–	–	100 to 125	125 to 150
CC(c1c(F)cccc1Cl)n1cc(NC(=O)c2cc(-c3ccco3)on2)cn1 (centres unmarked) [Compound 1-4, N-(1-(1-(2-chloro-6-fluorophenyl)ethyl)-1H-pyrazol-4-yl)-5-(furan-2-yl)isoxazole-3-carboxamide]	–	–	–	–	> 150	> 150
CC(c1ccc(F)cc1F)n1cc(NC(=O)c2cc(-c3ccco3)on2)cn1 (centres unmarked) [Compound 1-5, N-(1-(1-(2,4-difluorophenyl)ethyl)-1H-pyrazol-4-yl)-5-(furan-2-yl)isoxazole-3-carboxamide]	–	–	–	–	100 to 125	> 150
CC(c1ccc(F)cc1Cl)n1cc(NC(=O)c2cc(-c3ccco3)on2)cn1 (centres unmarked) [Compound 1-6, N-(1-(1-(2-chloro-4-fluorophenyl)ethyl)-1H-pyrazol-4-yl)-5-(furan-2-yl)isoxazole-3-carboxamide]	–	–	–	–	100 to 125	75 to 100
CC(c1ccc(C(F)(F)F)cc1C(F)(F)F)n1cc(NC(=O)c2cc(-c3cnccn3)no2)cn1 (centres unmarked) [Compound 1-11, N-(1-(1-(2,4-bis(trifluoromethyl)phenyl)ethyl)-1H-pyrazol-4-yl)-3-(pyrazin-2-yl)isoxazole-5-carboxamide]	–	–	–	–	50 to 75	50 to 75
O=C(Nc1cnn(C2CCc3cc(C(F)(F)F)ccc32)c1)c1cc(-c2cnccn2)on1 (centres unmarked) [Compound 1-12, 5-(pyrazin-2-yl)-N-(1-(5-(trifluoromethyl)-2,3-dihydro-1H-inden-1-yl)-1H-pyrazol-4-yl)isoxazole-3-carboxamide]	–	–	–	–	75 to 100	75 to 100
CC(c1c(Cl)cccc1Cl)n1cc(NC(=O)c2cc(-c3cccs3)on2)cn1 (centres unmarked) [Compound 1-13, N-(1-(1-(2,6-dichlorophenyl)ethyl)-1H-pyrazol-4-yl)-5-(thiophen-2-yl)isoxazole-3-carboxamide]	–	–	+ (+ refers to 0% < % activity < 25% at 1 or 10 μM test compound)	+ (+ refers to 0% < % activity < 25% at 1 or 10 μM test compound)	75 to 100	100 to 125
Cc1c(NC(=O)c2cc(-c3ccco3)on2)cnn1C(C)c1c(Cl)cccc1Cl (centres unmarked) [Compound 1-22, N-(1-(1-(2,6-dichlorophenyl)ethyl)-5-methyl-1H-pyrazol-4-yl)-5-(furan-2-yl)isoxazole-3-carboxamide]	–	–	+ (+ refers to 0% < % activity < 25% at 1 or 10 μM test compound)	+ (+ refers to 0% < % activity < 25% at 1 or 10 μM test compound)	75 to 100	100 to 125
